Values quoted from earlier work as cited in US20070098710A1, “Anxiolytic composition comprising essential oil derived from plants as active ingredients, anxiolytic comprising thereof, and a producing method thereof” (NATURE TECHNOLOGY, INC., priority 2004, published 2007).

Experiments:
[1] = test system: male ICR mice; details: mouse, administered previously

Structure (SMILES)	change of the emotionality (inhibition of looking into hole) by restraint stress [1]	solubility in ethanol (ethanol)	solubility in water (water)
CN1C(=O)CN=C(c2ccccc2)c2cc(Cl)ccc21 [diazepam]	improved	–	–
CC1CCC(C(C)C)C(O)C1 (stereo not drawn) [l-menthol, 5-methyl 2-(1-methylethyl)cyclohexanol]	–	soluble in ethanol	insoluble in water
